What was measured:
[1] = molecular target: T1, Human immunodeficiency virus type 1 integrase (Human immunodeficiency virus 1, UniProt Q7ZJM1); assay: Inhibition of HIV-1 integrase in strand transfer assay
[2] = molecular target: T1, Human immunodeficiency virus type 1 integrase; assay: Inhibition of HIV-1 integrase in coupled transfer assay
[3] = test system: Human immunodeficiency virus 1; assay: Viral protection was determined in a 24 hr HIV-1 viral infectivity assay; type: functional, organism-based

T1 sequence (Q7ZJM1 whole entry): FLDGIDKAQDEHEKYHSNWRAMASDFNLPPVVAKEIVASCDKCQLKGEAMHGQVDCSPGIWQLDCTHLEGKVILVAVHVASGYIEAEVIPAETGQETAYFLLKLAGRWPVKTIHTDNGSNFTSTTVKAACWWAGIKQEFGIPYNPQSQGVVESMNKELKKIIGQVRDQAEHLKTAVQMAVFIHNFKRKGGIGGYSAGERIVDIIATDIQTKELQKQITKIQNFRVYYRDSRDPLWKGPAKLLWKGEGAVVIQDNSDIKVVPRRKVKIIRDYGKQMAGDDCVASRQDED

Question: `COc1cc(OC)c2c(OC)c3c(cc2c1-c1c(OC)cc(OC)c2c(OC)c4c(cc12)OC(C)C(C)C4=O)OC(C)C(C)C3=O` (configuration not stated) was tested. Which IC50 [1] did it give?
Answer: > 100 µM

Question: And the IC50 [2]?
Answer: 60 µM

Question: How did the IC50 [1] turn out when `C[C@@H]1Oc2cc3c(-c4c(O)cc(O)c5c(O)c6c(cc45)O[C@H](C)[C@@H](C)C(=O)O6)c(O)cc(O)c3c(O)c2C(=O)[C@@H]1C` was run?
Answer: 9 µM

Question: And the IC50 [2]?
Answer: 3 µM

Question: With `COc1cc(O)c2c(OC)c3c(cc2c1-c1c(OC)cc(OC)c2c(OC)c4c(cc12)OC(C)C(C)C4=O)OC(C)C(C)C3=O` (configuration not stated) as the molecule, how does the IC50 [1] read?
Answer: > 100 µM

Question: What about the IC50 [2] of the same molecule?
Answer: 40 µM

Question: With `COc1cc(O)c2c(OC)c3c(cc2c1-c1c(O)cc(OC)c2c(OC)c4c(cc12)OC(C)C(C)C4=O)OC(C)C(C)C3=O` (configuration not stated) as the molecule, how does the IC50 [1] read?
Answer: > 100 µM

Question: What about the IC50 [2] of the same molecule?
Answer: 8 µM

Question: What does the source list for `CC(=O)Oc1cc(OC(C)=O)c2c(OC(C)=O)c3c(cc2c1-c1c(OC(C)=O)cc(OC(C)=O)c2c(OC(C)=O)c4c(cc12)OC(C)C(C)C4=O)OC(C)C(C)C3=O` (configuration not stated)?
Answer: IC50 [1]: > 100 µM; IC50 [2]: 50 µM

Question: How did the IC50 [1] turn out when `Cc1oc2cc3c(-c4c(O)cc(O)c5c(O)c6c(cc45)O[C@H](C)[C@H](C)C6=O)c(O)cc(O)c3c(O)c2c(=O)c1C` was run?
Answer: 4 µM

Question: And the IC50 [2]?
Answer: 1 µM

Question: How did the IC50 [1] turn out when `COc1cc(O)c2c(O)c3c(cc2c1-c1c(OC)cc(OC)c2c(OC)c4c(cc12)OC(C)C(C)C4=O)OC(C)C(C)C3=O` (stereo in doubt; 9d) was run?
Answer: > 100 µM

Question: And the IC50 [2]?
Answer: 80 µM

Question: With `COc1cc(O)c2c(O)c3c(cc2c1-c1c(OC)cc(OC)c2c(OC)c4c(cc12)OC(C)C(C)C4=O)OC(C)C(C)C3=O` (stereo in doubt; 9e) as the molecule, how does the IC50 [1] read?
Answer: > 100 µM

Question: And the IC50 [2]?
Answer: 40 µM

Question: Which IC50 [1] does the source give for `CC1Oc2cc3c(-c4c(O)cc(O)c5c(O)c6c(cc45)OC(C)C(C)C6=O)c(O)cc(O)c3c(O)c2C(=O)C1C` (stereo in doubt; form 1) here?
Answer: 12 µM

Question: And the IC50 ([3]; Human immunodeficiency virus 1, 24 h)?
Answer: 3 µM

Question: What about the IC50 [2] of the same molecule?
Answer: 2 µM

Question: What does the source list for `CC1Oc2cc3c(-c4c(O)cc(O)c5c(O)c6c(cc45)OC(C)C(C)C6=O)c(O)cc(O)c3c(O)c2C(=O)C1C` (stereo in doubt; form 2)?
Answer: IC50 [1]: 12 µM; IC50 [3]: 2 µM; IC50 [2]: 2 µM

Source: ChEMBL document CHEMBL1136596, “Four novel bis-(naphtho-gamma-pyrones) isolated from Fusarium species as inhibitors of HIV-1 integrase” (Bioorg Med Chem Lett, 2003)
